Laboratory results: patent US20230405015A1, “SUBSTITUTED 3,6-DIHYDRO-2H-1,3,4-OXADIAZIN-2-ONES FOR THE TREATMENT OF SARCOMA” (Bayer Aktiengesellschaft, priority 2021, published 2023)
Values joined by “and” are separate entries in the source; they are usually repeats but may differ in a detail not shown here. Equal entries are not always repeated. “Also recorded” adds a separate entry of the source.

Key:
[1] = test system: human sarcoma cell line G-292 clone A141B1; experiment: Cell proliferation measurement in vitro (Cell Titer Glo, 72 h); format: cell-based; settings: G292, G-292 clone A141B1, 72 h, read-out: Anti-proliferation Target IC50
Protocol: The antiproliferative activity of the compounds of the general formula (I) was examined in vitro in the human sarcoma cell line G-292 clone A141B1 (from ATCC). For this purpose, the appropriate number of cells (1000) were plated in 384-well plates with appropriate growth medium McCoy's 5a Medium Modified, FCS 10% final (Biochrom; #S 0415); and incubated at 37° C. overnight. After 24 h, cells on one plate (0 h plate) were treated with 30 μl/cavity of CTG solution (Promega Cell Titer Glo (catalogue #G755B and G756B)) and incubated at room temperature for 10 min, and luminescence was measured by means of a VICTOR V (Perkin Elmer), in order to determine cell viability on commencement of treatment. The cells on the test plate were treated with a set of compounds of the general formula (I) as indicated below and incubated at 37° C. for 72 h. The compounds were added to the cells by means of an HP D300 digital dispenser in a 10-step 2.5-fold dilution series generally starting at a maximum final drug concentration of 100 nM. As control, the cells were treated with vehicle (DMSO at 0.3% final concentration). After 72 h, the cells were treated with 30 μl/cavity of CTG solution (Promega Cell Titer Glo (catalogue #G755B and G756B)) and incubated at room temperature for 10 min, and luminescence was measured by means of a VICTOR V (Perkin Elmer), in order to determine cell viability at the end of treatment. The percentage effect on cell growth and the IC50 derived therefrom were determined for each test substance using the values from the 0 h plate (=maximum inhibition) and the DMSO control (=minimum inhibition). The IC50 values were calculated using a 4-parameter fit.

[2] = test system: sarcoma patient derived xenograft model SA16044 (Soft Tissue Sarcoma); experiment: In vivo xenotransplantation model SA16044; parameters: species or system mice; settings: for T/C: SA16044 Soft Tissue Sarcoma PDX subcutaneous in mice, 10 mg/kg 2QD p.o., at study end
Description: The anti-tumor activities of (6S)-5-[4′-fluoro-2-(trifluoromethyl)biphenyl-4-yl]-6-methyl-3,6-dihydro-2H-1,3,4-oxadiazin-2-one was examined in murine xenotransplantation models of human cancer. For this purpose, mice were implanted subcutaneously with tumor pieces. At a mean tumor size of 20-40 mm^2 animals were randomized into treatment and control groups (at least n=10 animals/group) and treatment started with vehicle only or respective compound (formulation: 90% PEG400/10% Ethanol; application route: per os (“p.o.”), orally). The oral application volume was 10 ml/kg. In the case of twice daily treatments, the time interval between two applications per day was 6-7 h. The tumor size and the body weight were determined at least weekly. The tumor area was detected by means of an electronic caliper [length (mm)×width (mm)]. The experiment was ended when the study reached the pre-determined ethical endpoint based on German and European animal welfare regulations. In vivo anti-tumor efficacy is presented as T/C ratio at study end (Treatment/Control; mean tumor weight of treatment group/mean tumor weight of control group) in Table 2. A compound having a T/C below 0.5 is defined as active (i.e., effective). Statistical analysis was assessed using SigmaStat software. A one-way analysis of variance was performed and differences to the control were compared by a pair-wise comparison procedure (Dunn's method).
Patient-derived xenograft models established by direct transplantation of fresh human tumors are considered to more closely resemble the heterogeneity of the actual human tumor compared to xenograft models established from cell lines that have been cultured in vitro for decades. The anti-tumor activity of (6S)-5-[4′-fluoro-2-(trifluoromethyl)biphenyl-4-yl]-6-methyl-3,6-dihydro-2H-1,3,4-oxadiazin-2-one was assessed in patient-derived xenograft models of sarcoma, a tumor type consisting of many subtypes and a high medical need due to absence of approved targeted therapies. The tumor models are originating from CrownBio.

[3] = test system: sarcoma patient derived xenograft model SA4058 (Synovial Sarcoma); experiment: In vivo xenotransplantation model SA4058; parameters: species or system mice
Description: (§1) The anti-tumor activities of (6S)-5-[4′-fluoro-2-(trifluoromethyl)biphenyl-4-yl]-6-methyl-3,6-dihydro-2H-1,3,4-oxadiazin-2-one was examined in murine xenotransplantation models of human cancer. For this purpose, mice were implanted subcutaneously with tumor pieces. At a mean tumor size of 20-40 mm^2 animals were randomized into treatment and control groups (at least n=10 animals/group) and treatment started with vehicle only or respective compound (formulation: 90% PEG400/10% Ethanol; application route: per os (“p.o.”), orally). The oral application volume was 10 ml/kg. In the case of twice daily treatments, the time interval between two applications per day was 6-7 h. The tumor size and the body weight were determined at least weekly. The tumor area was detected by means of an electronic caliper [length (mm)×width (mm)]. The experiment was ended when the study reached the pre-determined ethical endpoint based on German and European animal welfare regulations. In vivo anti-tumor efficacy is presented as T/C ratio at study end (Treatment/Control; mean tumor weight of treatment group/mean tumor weight of control group) in Table 2. A compound having a T/C below 0.5 is defined as active (i.e., effective). Statistical analysis was assessed using SigmaStat software. […]

[4] = test system: sarcoma patient derived xenograft model SA3831 (Osteosarcoma); experiment: In vivo xenotransplantation model SA3831; parameters: species or system mice
Description: as §1

[5] = test system: sarcoma patient derived xenograft model SA10245 (Fibrous histiocytoma); experiment: In vivo xenotransplantation model SA10245; parameters: species or system mice
Description: as §1

[6] = test system: sarcoma patient derived xenograft model SA10199 (recurrent malignant solitary fibrous tumor); experiment: In vivo xenotransplantation model SA10199; parameters: species or system mice
Description: as §1

IC50 [1] [µM]	SMILES	other results
0.026	O=C1NN=C(c2ccc(N3CCC(F)(F)CC3)c(F)c2)CO1 [Example 1, 5-[4-(4,4-Difluoropiperidin-1-yl)-3-fluorophenyl]-3,6-dihydro-2H-1,3,4-oxadiazin-2-one]	–
0.0382	O=C1NN=C(c2ccc(-c3ccc(F)cc3)c(C(F)(F)F)c2)CO1 [Example 3, 5-[4'-Fluoro-2-(trifluoromethyl)biphenyl-4-yl]-3,6-dihydro-2H-1,3,4-oxadiazin-2-one]	–
0.103	O=C1NN=C(c2ccc(N3CCOCC3)c(F)c2)CO1 [Example 4, 5-[3-Fluoro-4-(morpholin-4-yl)phenyl]-3,6-dihydro-2H-1,3,4-oxadiazin-2-one]	–
0.0496	Cc1cc(C2=NNC(=O)OC2)ccc1-c1ccc(F)cc1 [Example 7, 5-(4'-Fluoro-2-methylbiphenyl-4-yl)-3,6-dihydro-2H-1,3,4-oxadiazin-2-one]	–
0.0968	Cc1cc(C2=NNC(=O)OC2)ccc1-c1ccc(F)c(F)c1 [Example 8, 5-(3',4'-Difluoro-2-methylbiphenyl-4-yl)-3,6-dihydro-2H-1,3,4-oxadiazin-2-one]	–
0.0351	O=C1NN=C(c2ccc(-c3ccc(C(F)F)cc3)c(F)c2)CO1 [Example 92, 5-[4'-(Difluoromethyl)-2-fluoro[1,1'-biphenyl]-4-yl]-3,6-dihydro-2H-1,3,4-oxadiazin-2-one]	–
0.0176	C[C@@H]1OC(=O)NN=C1c1ccc(-c2ccc(F)cc2)c(C(F)(F)F)c1 [Example 135, (6S)-5-[4'-Fluoro-2-(trifluoromethyl)biphenyl-4-yl]-6-methyl-3,6-dihydro-2H-1,3,4-oxadiazin-2-one]	anti-tumor efficacy (in words) ([2]; SA16044 PDX in mice, versus vehicle, unpaired t-test): significant anti-tumor efficacy; also recorded: moderate tumor-growth inhibition; T/C ([2]; listed as (6S)-5-[4'-fluoro-2-(trifluoromethyl)biphenyl-4-yl]-6-methyl-3,6-dihydro-2H-1,3, 10 mg/kg): 0.33; T/C ([2]; listed as (6S)-5-[4′-fluoro-2-(trifluoromethyl)biphenyl-4-yl]-6-methyl-3,6-dihydro-2H-1,3, 10 mg/kg): 0.35 and 0.33; anti-tumor efficacy (in words) ([3]; SA4058 PDX in mice, versus vehicle, unpaired t-test): significant anti-tumor efficacy; also recorded: strong tumor-growth inhibition; T/C ([3]; SA4058 Synovial Sarcoma PDX subcutaneous in mice, 10 mg/kg 2QD p.o., at study end): 0.12; T/C ([4]; SA3831 Osteosarcoma PDX subcutaneous in mice, 10 mg/kg 2QD p.o., at study end): 0.01; anti-tumor efficacy (in words) ([4]; SA3831 PDX in mice, versus vehicle, unpaired t-test): strong tumor-growth inhibition; also recorded: significant anti-tumor efficacy; T/C ([5]; SA10245 Fibrous histiocytoma PDX subcutaneous in mice, 10 mg/kg 2QD p.o., at study end): 0.73; anti-tumor efficacy (in words) ([5]; SA10245 PDX in mice, versus vehicle, unpaired t-test): non-significant signs of anti-tumor efficacy; also recorded: least sensitive model; anti-tumor efficacy (in words) ([6]; SA10199 PDX in mice, versus vehicle, unpaired t-test): significant anti-tumor efficacy; also recorded: moderate tumor-growth inhibition; T/C ([6]; SA10199 Sarcoma (recurrent malignant solitary fibrous tumor) PDX subcutaneous in mice, 10 mg/kg 2QD p.o., at study end, listed as (6S)-5-[4'-fluoro-2-(trifluoromethyl)biphenyl-4-yl]-6-methyl-3,6-dihydro-2H-1,3, 10 mg/kg): 0.34
0.193	Cc1ccc(C2=NNC(=O)OC2)cc1C(F)(F)F [Example 139, 5-[4-Methyl-3-(trifluoromethyl)phenyl]-3,6-dihydro-2H-1,3,4-oxadiazin-2-one]	–
0.0125	O=C1NN=C(c2ccc(-c3cnn(C(F)F)c3)c(C(F)(F)F)c2)CO1 [Example 146, 5-{4-[1-(Difluoromethyl)-1H-pyrazol-4-yl]-3-(trifluoromethyl)phenyl}-3,6-dihydro-2H-1,3,4-oxadiazin-2-one]	–
0.0372	C[C@@H]1OC(=O)NN=C1c1ccc(-n2ccc(C(F)(F)F)n2)c(C(F)(F)F)c1 [Example 265, (6S)-6-Methyl-5-{3-(trifluoromethyl)-4-[3-(trifluoromethyl)-1H-pyrazol-1-yl]phenyl}-3,6-dihydro-2H-1,3,4-oxadiazin-2-one]	–
0.0168	COCCCc1ccc(C2=NNC(=O)OC2)cc1C(F)(F)F [Example 267, 5-[4-(3-Methoxypropyl)-3-(trifluoromethyl)phenyl]-3,6-dihydro-2H-1,3,4-oxadiazin-2-one]	–
0.0857	CC(C)(C)CCc1ccc(C2=NNC(=O)OC2)cc1C(F)(F)F [Example 269, 5-[4-(3,3-Dimethylbutyl)-3-(trifluoromethyl)phenyl]-3,6-dihydro-2H-1,3,4-oxadiazin-2-one]	–
0.604	C[C@@H]1OC(=O)NN=C1c1ccc(N2CCN(C)CC2)c(C(F)(F)F)c1 [Example 277, (6S)-6-Methyl-5-[4-(4-methylpiperazin-1-yl)-3-(trifluoromethyl)phenyl]-3,6-dihydro-2H-1,3,4-oxadiazin-2-one]	–
